Earlier results as cited in patent US11884694B2, “Non-caloric sweeteners and methods for synthesizing” (Conagen Inc., priority 2014, dated 2024).

conditions: sweetness compared with sucrose

| Structure (SMILES) | times sweeter than sucrose |
| --- | --- |
| C=C1C[C@@]23CC[C@H]4[C@@](C)(CCC[C@@]4(C)C(=O)O[C@@H]4O[C@H](CO)[C@@H](O)[C@H](O)[C@H]4O)[C@@H]2CC[C@]1(O[C@@H]1O[C@H](CO)[C@@H](O)[C@H](O)[C@H]1O[C@@H]1O[C@H](CO)[C@@H](O)[C@H](O)[C@H]1O)C3 [stevioside, Stevioside] | 100-150 times |
| C=C1C[C@@]23CC[C@H]4[C@@](C)(CCC[C@@]4(C)C(=O)O[C@@H]4O[C@H](CO)[C@@H](O)[C@H](O)[C@H]4O)[C@@H]2CC[C@]1(O[C@@H]1O[C@H](CO)[C@@H](O)[C@H](O[C@@H]2O[C@H](CO)[C@@H](O)[C@H](O)[C@H]2O)[C@H]1O[C@@H]1O[C@@H](C)[C@H](O)[C@@H](O)[C@H]1O)C3 [Rebaudioside C] | 40-60 times |
| C=C1C[C@@]23CC[C@H]4[C@@](C)(CCC[C@@]4(C)C(=O)O[C@@H]4O[C@H](CO)[C@@H](O)[C@H](O)[C@H]4O)[C@@H]2CC[C@]1(O[C@@H]1O[C@H](CO)[C@@H](O)[C@H](O)[C@H]1O[C@@H]1O[C@@H](C)[C@H](O)[C@@H](O)[C@H]1O)C3 [Dulcoside A] | about 30 times |
